Tests used:
[1] = tested on: serum testosterone concentration; assay: testosterone-reducing potential in intact adult male rats (serum testosterone, radioimmunological); format: in vivo; conditions: subcutaneous, one time, 0.25 mg/kg of body weight, after 24 hours
Protocol: The peptide compounds are to be used in the treatment of benign enlargements of the prostate and carcinomas of the prostate. Therefore, the testosterone-reducing potential is tested. For this purpose, generally clearly higher dosages of one and the same antagonists are required than for the induction of an inhibition of ovulation. In the test process used here, intact adult male rats are subcutaneously treated one time with the substance to be tested. The effect on the serum testosterone concentration after 24 hours is determined radioimmunologically (kit of the Biermann company).

[2] = tested on: release of histamine; assay: in vivo observation of edematous changes on face/extremities as sign of histamine release; parameters: species or system rats; conditions: 0.1 to 5 mg/kg of body weight subcutaneously
Excerpt: In addition to the reduction of the testosterone value, the release of histamine is of importance. […] This in vivo test is ascribed considerably more relevance than the Mastzell test, used in many cases.

[3] = tested on: Mastzell; assay: Mastzell test (release of histamine); format: cell-based; conditions: ED50 still not achieved at highest stated concentration

edematous changes on the face and/or on the extremities (typical of histamine release) [2]: occur at none of the tested dosages
Substance: Ac--D--Nal--D--Cpa--D--Pal--Ser--Tyr--D--Cit--Leu--Ahx(Mor)--Pro--D--Ala--NH2 [Example 13]
inhibition of serum testosterone concentration in comparison to the control [1]: 26% | ED50 of the release of histamine [3]: > 10 mg/L

Reference: US5527777A, “Peptide compounds, in particular LHRH-antagonists” (Schering Aktiengesellschaft, priority 1991, dated 1996)
